Source: patent publication US3947569A, “Process for preparing the releasing hormone of luteinizing hormone (LH) and of follicle stimulating hormone (FSH), salts and compositions thereof, and intermediates therefor” (American Home Products Corporation, priority 1974, dated 1976)

Assays:
[1] = test system: LH and FSH release; test: bioassays / biological equivalence to the natural hormone (not specified further)
[2] = test system: LH and FSH release; test: LH- and FSH-releasing activity tested in the radioimmunoassay of Niswender et al.; format: in vivo; settings: acid addition salt
Description: (§1) Exp. Biol. Med., 128, 807 (1968).

[3] = test system: ovulation; test: induction of ovulation in the hamster (Arimura et al., Science 174, 511); format: in vivo
Description: as §1

[4] = test system: ovulation; test: modification of the ovulation induction assay in the rat (Arimura et al., Endocrinology 80, 515); format: in vivo
Description: as §1

Row | Compound | pharmacological / biological equivalence ([1]; compared with the decapeptide or the natural hormone) | potency in bioassays compared with the natural product ([1]; hydrochloride salt) | LH- and FSH-releasing activity compared with the natural hormone [2] | activity in induction of ovulation compared with the natural hormone ([3]; hamster) | time to ovulation following administration ([3]; rodents such as rats or hamsters: hamster) | activity in induction of ovulation compared with the natural hormone ([4]; rat) | time to ovulation following administration ([4]; rodents such as rats or hamsters: rat)
1 | 5-Oxo-L-Prolyl-L-Histidyl-L-Tryptophyl-L-Seryl-L-Tyrosylglycyl-L-Leucyl-L-Arginyl-L-Prolylglycinamide (I) Zinc Complex [Example 19] | pharmacologically equivalent to the decapeptide | – | – | – | – | – | –
2 | CC(C)C[C@H](NC(=O)CNC(=O)[C@H](Cc1ccc(O)cc1)NC(=O)[C@H](CO)NC(=O)[C@H](Cc1c[nH]c2ccccc12)NC(=O)[C@H](Cc1c[nH]cn1)NC(=O)[C@@H]1CCC(=O)N1)C(=O)N[C@@H](CCCNC(=N)N)C(=O)N1CCC[C@H]1C(=O)NCC(N)=O [I, 5-oxo-L-prolyl-L-histidyl-L-tryptophyl-L-seryl-L-tyrosylglycyl-L-leucyl-L-arginyl-L-prolylglycinamide] | – | as potent as the latter | as active as the natural hormone | equally active | ≤ 18 h | equally active | ≤ 18 h
